Experimental data: the C3SDB collision cross section collection
Several values for one entry are separate records, joined by “and”; a condition that tells them apart may be missing. Equal entries are not always repeated.

Columns and labels:
[1] = instrument: DT, stepped-field
[2] = instrument: DT, single field, calibrated with Agilent tune mix (Agilent)
[3] = instrument: TW, calibrated with phosphatidylcholines (ESI+) and phosphatidylethanolamines (ESI-)

## CCCCCCCC/C=C\CCCCCCCC(=O)OC[C@@H](O)COP(=O)(O)O [LPA(18:1)]
[1]; [M-H]-
  collision cross section (N2): 198.8 Å²

## CCCCCC/C=C\CCCCCCCC(=O)OC[C@@H](O)COP(=O)(O)OCCN [LPE(16:1)]
[1]; [M-H]-
  collision cross section (N2): 201.1 Å²
[2]; [M-H]-
  collision cross section (N2): 203.8 Å²

## CCCCCC/C=C\CCCCCCCCCC(=O)O[C@H](CO)COP(=O)(O)OCCN [LPE(18:1)]
[3]; [M+H]+
  collision cross section (N2): 214.2 Å²
[3]; [M+Na]+
  collision cross section (N2): 219 Å²
[3]; [M-H]-
  collision cross section (N2): 210.2 Å²
[1]; [M-H]-
  collision cross section (N2): 210.1 Å²
[2]; [M+H]+
  collision cross section (N2): 215.8 Å²
[2]; [M+Na]+
  collision cross section (N2): 222.1 Å²
[2]; [M-H]-
  collision cross section (N2): 211.3 Å²

## CCCCCCCCCCCCCCCC(=O)OC[C@@H](O)COP(=O)(O)OC[C@@H](O)CO [LPG(16:0)]
[1]; [M-H]-
  collision cross section (N2): 214.3 Å²

## CCCCCC/C=C\CCCCCCCC(=O)OC[C@@H](O)COP(=O)(O)OC[C@@H](O)CO [LPG(16:1)]
[1]; [M-H]-
  collision cross section (N2): 212 Å²

## CCCCCCCCCCCCCCCC(=O)OC[C@@H](O)COP(=O)(O)O[C@H]1C(O)C(O)C(O)[C@@H](O)C1O (stereo not given in full) [LPI(16:0)]
[1]; [M-H]-
  collision cross section (N2): 228.7 Å²
[2]; [M-H]-
  collision cross section (N2): 229.1 Å²

## CCCCCCCC/C=C\CCCCCCCCCC(=O)O[C@H](COC(=O)CCCCCCCCCCC)COP(=O)(O)O [PA(16:0/16:1)]
[1]; [M-H]-
  collision cross section (N2): 251.8 Å²

## CCCCCCCCCC/C=C\CCCCCCCCCC(=O)O[C@H](COC(=O)CCCCCCCCCCCCC)COP(=O)(O)O [PA(18:0/18:1)]
[1]; [M-H]-
  collision cross section (N2): 268 Å²

## CCCCC/C=C\C/C=C\CCCCCCCCCCCC(=O)O[C@H](COC(=O)CCCCCCCCCCCCC)COP(=O)(O)O [PA(18:1/18:1)]
[1]; [M-H]-
  collision cross section (N2): 264 Å²

## CCCCC/C=C\C/C=C\C/C=C\CCCCCCC(=O)O[C@H](COCCCCCCCCCCCCCCCC)COP(=O)([O-])OCC[N+](C)(C)C [PC(o36:3)]
[1]; [M+H]+
  collision cross section (N2): 301 Å²

## CC/C=C\C/C=C\C/C=C\C/C=C\C/C=C\CCCC(=O)O[C@H](COCCCCCCCCCCCCCCCC)COP(=O)([O-])OCC[N+](C)(C)C [PC(o36:5)]
[1]; [M+H]+
  collision cross section (N2): 293.8 Å²

## CCCCC/C=C\C/C=C\CCCCCCCC(=O)O[C@H](COC(=O)CCCCCCCCCCCCCCC)COP(=O)(O)OCCN [PE(16:1/18:1)]
[1]; [M+H]+
  collision cross section (N2): 283.8 Å²

## CCCCC/C=C\C/C=C\CCCCCCCCCCCC(=O)O[C@H](COC(=O)CCCCCCC/C=C\C/C=C\CCCCC)COP(=O)(O)OCCN [PE(40:4)]
[3]; [M+H]+
  collision cross section (N2): 286.8 Å²
[3]; [M-H]-
  collision cross section (N2): 277.3 Å²
[1]; [M-H]-
  collision cross section (N2): 287.9 Å² and 287.8 Å²
[2]; [M+H]+
  collision cross section (N2): 288.1 Å²
[2]; [M+Na]+
  collision cross section (N2): 293.3 Å²
[2]; [M-H]-
  collision cross section (N2): 278.5 Å²

## CCCCC/C=C\C/C=C\C/C=C\CCCCCCC(=O)O[C@H](COCCCCCCCCCCCCCCCCCC)COP(=O)(O)OCCN [PE(o38:3)]
[1]; [M+H]+
  collision cross section (N2): 297.6 Å²

## CCCC/C=C\CCCCCCCC(=O)OC[C@H](COP(=O)(O)OC[C@@H](O)CO)OC(=O)CCCCCCC/C=C\CCCCCCCC [PG(16:1/16:1)]
[1]; [M-H]-
  collision cross section (N2): 267.1 Å²

## CC/C=C\C/C=C\C/C=C\C/C=C\CCCCC(=O)OC[C@H](COP(=O)(O)OC[C@@H](O)CO)OC(=O)CCCCCCCCCCCCCCCCC [PG(36:4)]
[3]; [M+Na]+
  collision cross section (N2): 281 Å²
[3]; [M-H]-
  collision cross section (N2): 271.3 Å²
[1]; [M-H]-
  collision cross section (N2): 278 Å²
[2]; [M+NH4]+
  collision cross section (N2): 283.4 Å²

## CCCCCCCCCCCCCCCC(=O)OC[C@H](COP(=O)(O)O[C@H]1C(O)C(O)C(O)[C@@H](O)C1O)OC(=O)CCCCCCCCCCC (stereo not given in full) [PI(12:0/16:0)]
[1]; [M-H]-
  collision cross section (N2): 273.5 Å²

## CCCCCCC/C=C\CCCCCCCC(=O)O[C@H](COC(=O)CCCCCCCCCCCC)COP(=O)(O)O[C@H]1C(O)C(O)C(O)[C@@H](O)C1O (stereo not given in full) [PI(14:0/16:1)]
[1]; [M-H]-
  collision cross section (N2): 278.4 Å²

## CCCCC/C=C\C/C=C\CCCCCCCCCCCC(=O)O[C@H](COC(=O)CCCCCCCCCCC)COP(=O)(O)O[C@H]1C(O)C(O)C(O)[C@@H](O)C1O (stereo not given in full) [PI(16:1/18:1)]
[1]; [M-H]-
  collision cross section (N2): 289.2 Å²
